From patent US20220119354A1, “DIAMINO-SUBSTITUTED PYRIDINES AND PYRIMIDINES AS HERBICIDES” (FMC Corporation, priority 2019, published 2022)

Tests used:
Assay type in all cases: in vivo
[1] = system: barnyardgrass (Echinochloa crus-galli); assay: Test A preemergence, barnyardgrass; details: 0 to 100 scale, 0 is no effect, 100 is complete control
In short: (§1)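 0–100 visual control rating, ~10 d post-treatment, greenhouse. Pre = directed soil spray on seeded loam/sand; post = spray at 1–2 leaf stage. Surfactant-containing solvent formulation.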

kochia (Kochia scoparia) [2] = assay: Test A preemergence, kochia; details: 0 to 100 scale, 0 is no effect, 100 is complete control
In short: as §1

[3] = system: ragweed (common ragweed, Ambrosia elatior); assay: Test A preemergence, ragweed; details: 0 to 100 scale, 0 is no effect, 100 is complete control
In short: as §1

[4] = system: ryegrass, Italian (Lolium multiflorum); assay: Test A preemergence, Italian ryegrass; details: 0 to 100 scale, 0 is no effect, 100 is complete control
In short: as §1

[5] = system: foxtail, giant (Setaria faberii); assay: Test A preemergence, giant foxtail; details: 0 to 100 scale, 0 is no effect, 100 is complete control
In short: as §1

[6] = system: pigweed (Amaranthus retroflexus); assay: Test A preemergence, pigweed; details: 0 to 100 scale, 0 is no effect, 100 is complete control
In short: as §1

[7] = system: barnyardgrass (Echinochloa crus-galli); assay: Test A postemergence, barnyardgrass; details: 0 to 100 scale, 0 no effect, 100 complete control
In short: as §1

kochia (Kochia scoparia) [8] = assay: Test A postemergence, kochia; details: 0 to 100 scale, 0 no effect, 100 complete control
In short: as §1

[9] = system: ragweed (common ragweed, Ambrosia elatior); assay: Test A postemergence, ragweed; details: 0 to 100 scale, 0 no effect, 100 complete control
In short: as §1

[10] = system: ryegrass, Italian (Lolium multiflorum); assay: Test A postemergence, Italian ryegrass; details: 0 to 100 scale, 0 no effect, 100 complete control
In short: as §1

[11] = system: foxtail, giant (Setaria faberii); assay: Test A postemergence, giant foxtail; details: 0 to 100 scale, 0 no effect, 100 complete control
In short: as §1

[12] = system: pigweed (Amaranthus retroflexus); assay: Test A postemergence, pigweed; details: 0 to 100 scale, 0 no effect, 100 complete control
In short: as §1

[13] = system: wheat (Triticum aestivum); assay: Test A postemergence, wheat; details: 0 to 100 scale, 0 no effect, 100 complete control
In short: as §1

corn (Zea mays) = assay: Test A postemergence, corn; details: 0 to 100 scale, 0 no effect, 100 complete control
In short: as §1

[14] = system: blackgrass (Alopecurus myosuroides); assay: Test A postemergence, blackgrass; details: 0 to 100 scale, 0 no effect, 100 complete control
In short: as §1

[15] = system: galium (catchweed bedstraw, Galium aparine); assay: Test A postemergence, galium; details: 0 to 100 scale, 0 no effect, 100 complete control
In short: as §1

rice (Oryza sativa) = assay: Test B flooded paddy test, rice; details: Flood, 250 g ai/ha, applied to paddy water, 2-leaf stage, visual evaluation after 13 to 15 d
In short: (§2)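 2-leaf seedlings; pots flooded 3 cm above soil; compound added straight to paddy water; depth maintained. Greenhouse 13–15 d. Visual rating vs controls, 0–100 scale (0 = no effect, 100 = complete control).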

[16] = system: sedge, umbrella (small-flower umbrella sedge, Cyperus difformis); assay: Test B flooded paddy test, umbrella sedge; details: Flood, 250 g ai/ha, applied to paddy water, 2-leaf stage, visual evaluation after 13 to 15 d
In short: as §2

[17] = system: ducksalad (Heteranthera limosa); assay: Test B flooded paddy test, ducksalad; details: Flood, 250 g ai/ha, applied to paddy water, 2-leaf stage, visual evaluation after 13 to 15 d
In short: as §2

[18] = system: barnyardgrass (Echinochloa crus-galli); assay: Test B flooded paddy test, barnyardgrass; details: Flood, 250 g ai/ha, applied to paddy water, 2-leaf stage, visual evaluation after 13 to 15 d
In short: as §2

| Compound | Barnyardgrass plant response rating ([1]; 125 g ai/ha) | Barnyardgrass plant response rating ([1]; 500 g ai/ha) | Kochia plant response rating (kochia (Kochia scoparia) [2]; 125 g ai/ha) | Kochia plant response rating (kochia (Kochia scoparia) [2]; 500 g ai/ha) | Ragweed plant response rating ([3]; 125 g ai/ha) | Ragweed plant response rating ([3]; 500 g ai/ha) | Ryegrass, Italian plant response rating ([4]; 125 g ai/ha) | Ryegrass, Italian plant response rating ([4]; 500 g ai/ha) | Foxtail, Giant plant response rating ([5]; 125 g ai/ha) | Foxtail, Giant plant response rating ([5]; 500 g ai/ha) | Pigweed plant response rating ([6]; 125 g ai/ha) | Pigweed plant response rating ([6]; 500 g ai/ha) | Plant response rating, Barnyardgrass ([7]; 125 g ai/ha) | Plant response rating, Barnyardgrass ([7]; 500 g ai/ha) | Plant response rating, Kochia (kochia (Kochia scoparia) [8]; 125 g ai/ha) | Plant response rating, Kochia (kochia (Kochia scoparia) [8]; 500 g ai/ha) | Plant response rating, Ragweed ([9]; 125 g ai/ha) | Plant response rating, Ragweed ([9]; 500 g ai/ha) | Plant response rating, Ryegrass, Italian ([10]; 125 g ai/ha) | Plant response rating, Ryegrass, Italian ([10]; 500 g ai/ha) | other results |
| --- | --- | --- | --- | --- | --- | --- | --- | --- | --- | --- | --- | --- | --- | --- | --- | --- | --- | --- | --- | --- | --- |
| Cc1ccc2c(C(C)Nc3ncc(C(F)(F)F)c(N)n3)coc2c1 (stereo not drawn) [Compound 85] | 70 | 100 | 30 | 90 | 90 | 100 | 40 | 50 | 70 | 100 | 100 | 100 | 50 | 80 | 70 | 90 | 50 | 90 | 50 | 60 | Plant response rating, Foxtail, Giant ([11]; 125 g ai/ha): 40; Plant response rating, Foxtail, Giant ([11]; 500 g ai/ha): 90; Plant response rating, Pigweed ([12]; 125 g ai/ha): 90; Plant response rating, Pigweed ([12]; 500 g ai/ha): 10; Plant response rating, Wheat ([13]; 125 g ai/ha): 30; Plant response rating, Wheat ([13]; 500 g ai/ha): 30; Plant response rating, Corn (corn (Zea mays); 125 g ai/ha): 10; Plant response rating, Corn (corn (Zea mays); 500 g ai/ha): 40; Plant response rating, Blackgrass ([14]; 125 g ai/ha): 40; Plant response rating, Blackgrass ([14]; 500 g ai/ha): 50; Plant response rating, Galium ([15]; 125 g ai/ha): 80; Plant response rating, Galium ([15]; 500 g ai/ha): 90; Plant response rating, Rice (0 to 100 scale, 0 is no effect, 100 is complete control) (rice (Oryza sativa)): 0; Plant response rating, Sedge, Umbrella (0 to 100 scale, 0 is no effect, 100 is complete control) [16]: 85; Plant response rating, Ducksalad (0 to 100 scale, 0 is no effect, 100 is complete control) [17]: 30; Plant response rating, Barnyardgrass (0 to 100 scale, 0 is no effect, 100 is complete control) [18]: 0 |
| CC(Nc1ncc(C(F)(F)F)c(N)n1)c1cc2ccc(F)c(F)c2s1 (stereo not drawn) [Compound 86] | 70 | 90 | 80 | 100 | 100 | 100 | 20 | 70 | 70 | 100 | 100 | 100 | 40 | 50 | 70 | 90 | 20 | 80 | 0 | 50 | Plant response rating, Foxtail, Giant ([11]; 125 g ai/ha): 60; Plant response rating, Foxtail, Giant ([11]; 500 g ai/ha): 60; Plant response rating, Pigweed ([12]; 125 g ai/ha): 90; Plant response rating, Pigweed ([12]; 500 g ai/ha): 100; Plant response rating, Wheat ([13]; 125 g ai/ha): 0; Plant response rating, Wheat ([13]; 500 g ai/ha): 0; Plant response rating, Corn (corn (Zea mays); 125 g ai/ha): 0; Plant response rating, Corn (corn (Zea mays); 500 g ai/ha): 0; Plant response rating, Blackgrass ([14]; 125 g ai/ha): 0; Plant response rating, Blackgrass ([14]; 500 g ai/ha): 10; Plant response rating, Galium ([15]; 125 g ai/ha): 70; Plant response rating, Galium ([15]; 500 g ai/ha): 70; Plant response rating, Rice (0 to 100 scale, 0 is no effect, 100 is complete control) (rice (Oryza sativa)): 0; Plant response rating, Sedge, Umbrella (0 to 100 scale, 0 is no effect, 100 is complete control) [16]: 98; Plant response rating, Ducksalad (0 to 100 scale, 0 is no effect, 100 is complete control) [17]: 75; Plant response rating, Barnyardgrass (0 to 100 scale, 0 is no effect, 100 is complete control) [18]: 60 |
| CC(Nc1nc(N)c(C(F)(F)F)c(C(F)(F)F)n1)c1coc2ccccc12 (stereo not drawn) [Compound 87] | 0 | 0 | 0 | 0 | 0 | 0 | 0 | 0 | 0 | 0 | 0 | 10 | 0 | 0 | 0 | 30 | 0 | 20 | 0 | 0 | Plant response rating, Foxtail, Giant ([11]; 125 g ai/ha): 0; Plant response rating, Foxtail, Giant ([11]; 500 g ai/ha): 0; Plant response rating, Pigweed ([12]; 125 g ai/ha): 0; Plant response rating, Pigweed ([12]; 500 g ai/ha): 60; Plant response rating, Wheat ([13]; 125 g ai/ha): 0; Plant response rating, Wheat ([13]; 500 g ai/ha): 0; Plant response rating, Corn (corn (Zea mays); 125 g ai/ha): 0; Plant response rating, Corn (corn (Zea mays); 500 g ai/ha): 0; Plant response rating, Blackgrass ([14]; 125 g ai/ha): 0; Plant response rating, Blackgrass ([14]; 500 g ai/ha): 0; Plant response rating, Galium ([15]; 125 g ai/ha): 0; Plant response rating, Galium ([15]; 500 g ai/ha): 0; Plant response rating, Rice (0 to 100 scale, 0 is no effect, 100 is complete control) (rice (Oryza sativa)): 0; Plant response rating, Sedge, Umbrella (0 to 100 scale, 0 is no effect, 100 is complete control) [16]: 0; Plant response rating, Ducksalad (0 to 100 scale, 0 is no effect, 100 is complete control) [17]: 0; Plant response rating, Barnyardgrass (0 to 100 scale, 0 is no effect, 100 is complete control) [18]: 0 |
| Nc1nc(NC(c2cc3ccccc3o2)C2CC2)ncc1C(F)(F)F (stereo not drawn) [Compound 88] | 70 | 90 | 70 | 100 | 80 | 100 | 50 | 100 | 90 | 100 | 100 | 100 | 10 | 90 | 90 | 90 | 30 | 90 | 50 | 60 | Plant response rating, Foxtail, Giant ([11]; 125 g ai/ha): 30; Plant response rating, Foxtail, Giant ([11]; 500 g ai/ha): 90; Plant response rating, Pigweed ([12]; 125 g ai/ha): 100; Plant response rating, Pigweed ([12]; 500 g ai/ha): 100; Plant response rating, Wheat ([13]; 125 g ai/ha): 0; Plant response rating, Wheat ([13]; 500 g ai/ha): 0; Plant response rating, Corn (corn (Zea mays); 125 g ai/ha): 20; Plant response rating, Corn (corn (Zea mays); 500 g ai/ha): 30; Plant response rating, Blackgrass ([14]; 125 g ai/ha): 50; Plant response rating, Blackgrass ([14]; 500 g ai/ha): 50; Plant response rating, Galium ([15]; 125 g ai/ha): 90; Plant response rating, Galium ([15]; 500 g ai/ha): 90; Plant response rating, Rice (0 to 100 scale, 0 is no effect, 100 is complete control) (rice (Oryza sativa)): 0; Plant response rating, Sedge, Umbrella (0 to 100 scale, 0 is no effect, 100 is complete control) [16]: 95; Plant response rating, Ducksalad (0 to 100 scale, 0 is no effect, 100 is complete control) [17]: 65; Plant response rating, Barnyardgrass (0 to 100 scale, 0 is no effect, 100 is complete control) [18]: 80 |
| Nc1nc(NC(c2cc3ccccc3o2)C2CC2)ncc1C(F)(F)F (stereo not drawn) [Compound 89] | 0 | 0 | 0 | 0 | 0 | 20 | 0 | 0 | 0 | 0 | 0 | 0 | 0 | 0 | 0 | 0 | 0 | 0 | 0 | 0 | Plant response rating, Foxtail, Giant ([11]; 125 g ai/ha): 0; Plant response rating, Foxtail, Giant ([11]; 500 g ai/ha): 0; Plant response rating, Pigweed ([12]; 125 g ai/ha): 0; Plant response rating, Pigweed ([12]; 500 g ai/ha): 0; Plant response rating, Wheat ([13]; 125 g ai/ha): 0; Plant response rating, Wheat ([13]; 500 g ai/ha): 0; Plant response rating, Corn (corn (Zea mays); 125 g ai/ha): 0; Plant response rating, Corn (corn (Zea mays); 500 g ai/ha): 0; Plant response rating, Blackgrass ([14]; 125 g ai/ha): 0; Plant response rating, Blackgrass ([14]; 500 g ai/ha): 0; Plant response rating, Galium ([15]; 125 g ai/ha): 0; Plant response rating, Galium ([15]; 500 g ai/ha): 0; Plant response rating, Rice (0 to 100 scale, 0 is no effect, 100 is complete control) (rice (Oryza sativa)): 0; Plant response rating, Sedge, Umbrella (0 to 100 scale, 0 is no effect, 100 is complete control) [16]: 95; Plant response rating, Ducksalad (0 to 100 scale, 0 is no effect, 100 is complete control) [17]: 30; Plant response rating, Barnyardgrass (0 to 100 scale, 0 is no effect, 100 is complete control) [18]: 30 |
